ChEMBL document CHEMBL1201862, “PubChem BioAssay data set” (2004)
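A five-concentration, 48-hour dose response in 96-well plates underlies each endpoint, interpolated linearly between surrounding concentrations. GI50 = concentration required for 50% inhibition of growth.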 The source made the active and inactive calls. Cut-off read from the data, not from the text of the source: active = GI50 up to about 1.1 µM and inactive = higher.

Legend:
Test in all cases: NCI-60 cell line screen, 48 h
786-0 = tested on: 786-0
A549 = tested on: A549
DU-145 = tested on: DU-145
EKVX = tested on: EKVX
HCT-15 = tested on: HCT-15
HOP-62 = tested on: HOP-62
HT-29 = tested on: HT-29
LOX IMVI = tested on: LOX IMVI
MDA-MB-231 = tested on: MDA-MB-231
MDA-MB-435 = tested on: MDA-MB-435
MOLT-4 = tested on: MOLT-4
Malme-3M = tested on: Malme-3M
RPMI-8226 = tested on: RPMI-8226
SF-295 = tested on: SF-295
SK-MEL-2 = tested on: SK-MEL-2
SR = tested on: SR
TK-10 = tested on: TK-10
U-251 = tested on: U-251
UACC-62 = tested on: UACC-62
NCI-H23 = tested on: NCI-H23

SMILES	GI50 (786-0)	GI50 (A549)	GI50 (DU-145)	GI50 (EKVX)	GI50 (HCT-15) [µM]	GI50 (HOP-62)	GI50 (HT-29)	GI50 (LOX IMVI)	GI50 (MDA-MB-231)	GI50 (MDA-MB-435)	GI50 (MOLT-4)	GI50 (Malme-3M)	GI50 (RPMI-8226)	GI50 (SF-295)	GI50 (SK-MEL-2)	GI50 (SR)	GI50 (TK-10)	GI50 (U-251)	GI50 (UACC-62)	GI50 (NCI-H23)
S=C(N/N=C(/c1ccccc1)c1ccccn1)Nc1ccc(Cl)cc1	1.05 µM (active)	1.97 µM (inactive)	1.87 µM (inactive)	0.462 µM (active)	0.067	1.93 µM (inactive)	0.0998 µM (active)	0.164 µM (active)	< 0.0106 µM (active)	2.22 µM (inactive)	< 0.0171 µM (active)	0.109 µM (active)	< 0.0221 µM (active)	0.627 µM (active)	0.455 µM (active)	< 0.0204 µM (active)	0.551 µM (active)	0.124 µM (active)	0.59 µM (active)	–
CC1=CC(=O)CC(C)(C)C1/C=C/C(C)=C/C=C/C(C)=C/C=C/C=C(C)/C=C/C=C(C)/C=C/C1C(C)=CC(=O)CC1(C)C (stereo unspecified)	34.4 µM (inactive)	–	> 100 µM (inactive)	92.9 µM (inactive)	27	42 µM (inactive)	35.7 µM (inactive)	29.3 µM (inactive)	> 100 µM (inactive)	23.4 µM (inactive)	50.1 µM (inactive)	–	25.2 µM (inactive)	92 µM (inactive)	> 100 µM (inactive)	66.1 µM (inactive)	77.1 µM (inactive)	38.7 µM (inactive)	–	36.3 µM (inactive)
CC1(C)N=C2C(=O)c3c([nH]c4ccccc34)[C@]3(C)CCC1CC23 (stereo partly specified)	> 6.25 µM (inactive)	> 6.25 µM (inactive)	> 6.25 µM (inactive)	> 6.25 µM (inactive)	> 6.25	> 6.25 µM (inactive)	> 6.25 µM (inactive)	> 6.25 µM (inactive)	> 6.25 µM (inactive)	> 6.25 µM (inactive)	> 6.25 µM (inactive)	> 6.25 µM (inactive)	> 6.25 µM (inactive)	> 6.25 µM (inactive)	> 6.25 µM (inactive)	> 6.25 µM (inactive)	> 6.25 µM (inactive)	> 6.25 µM (inactive)	–	> 6.25 µM (inactive)
C=CCC1(O)c2cccc(O)c2C(=O)c2c(O)cccc21	35.8 µM (inactive)	24 µM (inactive)	29.9 µM (inactive)	27.5 µM (inactive)	17.7	80.2 µM (inactive)	22.6 µM (inactive)	20.9 µM (inactive)	33.5 µM (inactive)	9.51 µM (inactive)	29.3 µM (inactive)	–	31.7 µM (inactive)	27.1 µM (inactive)	17.3 µM (inactive)	10.9 µM (inactive)	32.7 µM (inactive)	23.6 µM (inactive)	–	24.7 µM (inactive)
Cc1ccc2ccccc2c1CC1S(=O)(=O)OCCOS1(=O)=O	16.4 µM (inactive)	13.5 µM (inactive)	11.9 µM (inactive)	16.2 µM (inactive)	18.2	12.6 µM (inactive)	11.4 µM (inactive)	7.94 µM (inactive)	13.6 µM (inactive)	8.67 µM (inactive)	6.28 µM (inactive)	11.5 µM (inactive)	11.4 µM (inactive)	13.1 µM (inactive)	16.7 µM (inactive)	7.64 µM (inactive)	16.6 µM (inactive)	12 µM (inactive)	–	16 µM (inactive)
CC(=O)O[C@H]1CC(C)(C)C(=C=C/C(C)=C/C=C/C=C/C=C(C)/C=C2C=C(/C=C/[C@@]34O[C@]3(C)C[C@@H](O)CC4(C)C)C(=O)O/2)[C@](C)(O)C1	16 µM (inactive)	11.5 µM (inactive)	33.2 µM (inactive)	> 10 µM (inactive)	11	13.3 µM (inactive)	21.2 µM (inactive)	–	31.1 µM (inactive)	14.8 µM (inactive)	3.85 µM (inactive)	16.7 µM (inactive)	4.38 µM (inactive)	13.5 µM (inactive)	3.31 µM (inactive)	6.76 µM (inactive)	0.959 µM (active)	10.7 µM (inactive)	7.93 µM (inactive)	5.14 µM (inactive)
